Where a name gives a salt, the structure may show the parent alone. Read-outs that look alike come from different tables or passages of the source.
Key:
[1] = biological target: TrkA (histidine-tagged recombinant human TrkA, cytoplasmic domain) (Homo sapiens (Human), UniProt P04629); assay: TrkA ELISA Assay; format: biochemical; conditions: Table 1; ELISA, 500 μM ATP; read-out: TrkA Enzyme IC50
In short: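 ELISA read-out: a peroxidase-linked anti-phosphotyrosine antibody (PY20, 0.2 μg/mL) with TMB substrate, absorbance at 450 nm after acid stop. The plate-bound substrate was poly(Glu,Ala,Tyr; 6:3:1) at 0.025 mg/mL, phosphorylated by the recombinant His-tagged human TrkA cytoplasmic domain in the presence of inhibitors.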

[2] = biological target: Human Jak2 kinase domain (Homo sapiens (Human), UniProt O60674); assay: Jak2 Inhibition Assay (Omnia kinase assay); format: biochemical; conditions: read-out: Jak2 Enzyme IC50
[3] = Table 1, 500 μM ATP, >1000 nM when >50% inhibition not observed at 1000 nM

Human Jak2 kinase domain, sequence (O60674 808-1132): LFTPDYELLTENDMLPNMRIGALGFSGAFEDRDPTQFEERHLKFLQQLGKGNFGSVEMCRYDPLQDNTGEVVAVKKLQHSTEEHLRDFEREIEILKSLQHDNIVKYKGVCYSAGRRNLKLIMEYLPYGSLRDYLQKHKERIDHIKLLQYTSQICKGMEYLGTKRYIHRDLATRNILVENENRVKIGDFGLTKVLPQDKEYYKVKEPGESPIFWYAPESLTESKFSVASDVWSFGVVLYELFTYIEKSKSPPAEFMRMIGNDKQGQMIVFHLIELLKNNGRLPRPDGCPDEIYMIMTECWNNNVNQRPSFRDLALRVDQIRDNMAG
TrkA (histidine-tagged recombinant human TrkA, cytoplasmic domain), sequence (P04629 440-796): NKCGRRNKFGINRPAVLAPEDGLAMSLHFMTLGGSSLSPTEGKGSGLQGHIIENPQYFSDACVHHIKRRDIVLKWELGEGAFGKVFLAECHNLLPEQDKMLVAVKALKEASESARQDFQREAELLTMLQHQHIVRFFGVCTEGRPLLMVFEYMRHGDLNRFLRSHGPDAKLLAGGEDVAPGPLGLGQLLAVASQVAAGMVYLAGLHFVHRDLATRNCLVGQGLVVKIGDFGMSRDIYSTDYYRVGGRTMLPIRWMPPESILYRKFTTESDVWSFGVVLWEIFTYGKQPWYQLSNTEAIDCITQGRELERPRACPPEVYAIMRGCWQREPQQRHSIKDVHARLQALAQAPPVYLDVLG

## Cn1cc(F)cc([C@H]2CCCN2c2ccn3ncc(C(=O)NC(C)(C)C)c3n2)c1=O [Example 226, (R)—N-tert-butyl-5-(2-(5-fluoro-1-methyl-2-oxo-1,2-dihydropyridin-3-yl)pyrrolidin-1-yl)pyrazolo[1,5-a]pyrimidine-3-carboxamide]
[1]
  IC50: 10.5 nM
[2]; [3]
  IC50: > 1000 nM

## C[C@H](O)CNC(=O)c1cnn2ccc(N3CCC[C@@H]3c3cc(F)ccc3F)nc12 [Example 166, 5-((R)-2-(2,5-difluorophenyl)pyrrolidin-1-yl)-N-(2-hydroxypropyl)pyrazolo[1,5-a]primidine-3-carboxamide]
[1]
  IC50: 2.4 nM
[2]; [3]
  IC50: > 1000 nM

## NC(=O)c1cnn2ccc(N3CCC[C@@H]3c3cc(F)ccc3C(F)(F)F)nc12 [Example 64, (R)-5-(2-(5-fluoro-2-(trifluoromethyl)phenyl)pyrrolidin-1-yl)pyrazolo[1,5-a]pyrimidine-3-carboxamide]
[1]
  IC50: 1.6 nM
[2]; [3]
  IC50: 575 nM

## NC(=O)c1cnn2ccc(N3CCC[C@@H]3c3cc(F)cc(OCC(O)CO)c3)nc12 (stereo partly drawn) [Example 209, 5-((2R)-2-(3-(2,3-dihydroxypropoxy)-5-fluorophenyl)pyrrolidin-1-yl)pyrazolo[1,5-a]pyrimidine-3-carboxamide]
[1]
  IC50: 17.1 nM
[2]; [3]
  IC50: > 1000 nM

## O=C(N[C@@H]1CCNC[C@@H]1F)c1cnn2ccc(N3CCC[C@@H]3c3cc(F)ccc3F)nc12 [Example 61, 5-((R)-2-(2,5-difluorophenyl)pyrrolidin-1-yl)-N-((3S,4R)-3-fluoropiperidin-4-yl)pyrazolo[1,5-a]pyrimidine-3-carboxamide hydrochloride]
[1]
  IC50: 1.95 nM
[2]
  IC50: 699 nM

## CC(C)NC(=O)c1cnn2ccc(N3[C@@H](c4cncc(F)c4)CC[C@@]3(C)CO)nc12 [Example 219, 5-((2S,5R)-5-(5-fluoropyridin-3-yl)-2-(hydroxymethyl)-2-methylpyrrolidin-1-yl)-N-isopropylpyrazolo[1,5-a]pyrimidine-3-carboxamide]
[1]
  IC50: 188 nM
[2]; [3]
  IC50: > 1000 nM

## COc1ncc(F)cc1[C@H]1CCCN1c1ccn2ncc(C(=O)NC[C@H](O)CO)c2n1 [Example 143, N—((S)-2,3-dihydroxypropyl)-5-((R)-2-(5-fluoro-2-methoxypyridin-3-yl)pyrrolidin-1-yl)pyrazolo[1,5-a]pyrimidine-3-carboxamide]
[1]
  IC50: 8 nM
[2]; [3]
  IC50: > 1000 nM

## COc1ccc(F)cc1[C@H]1CCCN1c1ccn2ncc(C(=O)NC[C@H](O)CO)c2n1 [Example 55, N—((S)-2,3-dihydroxypropyl)-5-((R)-2-(5-fluoro-2-methoxyphenyl)pyrrolidin-1-yl)pyrazolo[1,5-a]pyrimidine-3-carboxamide]
[1]
  IC50: 1 nM
[2]
  IC50: > 1000 nM

## CC(C)[C@H](CO)NC(=O)c1cnn2ccc(N3CCC[C@@H]3c3cncc(F)c3)nc12 [Example 122, 5-((R)-2-(5-fluoropyridin-3-yl)pyrrolidin-1-yl)-N-((R)-1-hydroxy-3-methylbutan-2-yl)pyrazolo[1,5-a]pyrimidine-3-carboxamide]
[1]
  IC50: 33.2 nM
[2]; [3]
  IC50: > 1000 nM

## CC(C)(C#N)NC(=O)c1cnn2ccc(N3CCC[C@@H]3c3cc(F)ccc3F)nc12 [Example 38, (R)—N-(2-cyanopropan-2-yl)-5-(2-(2,5-difluorophenyl)pyrrolidin-1-yl)pyrazolo[1,5-a]pyrimidine-3-carboxamide]
[1]
  IC50: 1.3 nM
[2]
  IC50: > 1000 nM

## O=C(NCC(F)CCl)c1cnn2ccc(N3CCC[C@@H]3c3cncc(F)c3)nc12 (stereo partly drawn) [Example 97, N-(3-chloro-2-fluoropropyl)-5-((R)-2-(5-fluoropyridin-3-yl)pyrrolidin-1-yl)pyrazolo[1,5-a]pyrimidine-3-carboxamide]
[1]
  IC50: 6.2 nM
[2]; [3]
  IC50: > 1000 nM

## Cn1cc(F)cc([C@H]2CCCN2c2ccn3ncc(C(=O)Nc4cccnc4)c3n2)c1=O [Example 231, (R)-5-(2-(5-fluoro-1-methyl-2-oxo-1,2-dihydropyridin-3-yl)pyrrolidin-1-yl)-N-(pyridin-3-yl)pyrazolo[1,5-a]pyrimidine-3-carboxamide]
[1]
  IC50: 8.7 nM
[2]; [3]
  IC50: > 1000 nM

## CC1(C)CC[C@H](c2cc(F)ccc2F)N1c1ccn2ncc(C(N)=O)c2n1 [Example 67, (R)-5-(5-(2,5-difluorophenyl)-2,2-dimethylpyrrolidin-1-yl)pyrazolo[1,5-a]pyrimidine-3-carboxamide]
[1]
  IC50: 5.1 nM
[2]; [3]
  IC50: > 1000 nM

## O=C(NC1CCC[C@@H]1O)c1cnn2ccc(N3CCCC3c3cncc(F)c3)nc12 (stereo partly drawn) [Example 120, 5-((R)-2-(5-fluoropyridin-3-yl)pyrrolidin-1-yl)-N-((trans)-2-hydroxycyclopentyl)pyrazolo[1,5-a]pyrimidine-3-carboxamide]
[1]
  IC50: 22.8 nM
[2]; [3]
  IC50: > 1000 nM

## COCCNC(=O)c1cnn2ccc(N3CCC[C@@H]3c3cc(F)ccc3F)nc12 [Example 172, 5-((R)-2-(2,5-difluorophenyl)pyrrolidin-1-yl)-N-(2-methoxyethyl)pyrazolo[1,5-a]pyrimidine-3-carboxamide]
[1]
  IC50: 2.5 nM
[2]; [3]
  IC50: > 1000 nM

## O=C(NC1CC1)c1cnn2ccc(N3CCC[C@@H]3c3cccc(F)c3)nc12 [Example 37, (R)—N-cyclopropyl-5-(2-(3-fluorophenyl)pyrrolidin-1-yl)pyrazolo[1,5-a]pyrimidine-3-carboxamide]
[1]
  IC50: 1.65 nM
[2]; [3]
  IC50: > 1000 nM

## CC(NC(=O)c1cnn2ccc(N3CCCC3c3cncc(F)c3)nc12)C1CC1 [Example 113, N-(1-cyclopropylethyl)-5-((R)-2-(5-fluoropyridin-3-yl)pyrrolidin-1-yl)pyrazolo[1,5-a]pyrimidine-3-carboxamide]
[1]
  IC50: 3.2 nM
[2]; [3]
  IC50: > 1000 nM

## O=C(Nc1ccc(F)cn1)c1cnn2ccc(N3CCC[C@@H]3c3cncc(F)c3)nc12 [Example 95, (R)—N-(5-fluoropyridin-2-yl)-5-(2-(5-fluoropyridin-3-yl)pyrrolidin-1-yl)pyrazolo[1,5-a]pyrimidine-3-carboxamide]
[1]
  IC50: 5.4 nM
[2]; [3]
  IC50: > 1000 nM

## CC(C)(N)CNC(=O)c1cnn2ccc(N3CCC[C@@H]3c3cc(F)ccc3F)nc12 [Example 58, (R)—N-(2-amino-2-methylpropyl)-5-(2-(2,5-difluorophenyl)pyrrolidin-1-yl)pyrazolo[1,5-a]pyrimidine-3-carboxamide]
[1]
  IC50: 9.4 nM
[2]; [3]
  IC50: > 1000 nM

## CN(C)C(=O)c1cnn2ccc(N3CCC[C@@H]3c3cc(F)ccc3F)nc12 [Example 27, (R)-5-(2-(2,5-difluorophenyl)pyrrolidin-1-yl)-N,N-dimethylpyrazolo[1,5-a]pyrimidine-3-carboxamide]
[1]
  IC50: 214 nM
[2]; [3]
  IC50: > 1000 nM

## CC1(O)CN(C(=O)c2cnn3ccc(N4CCC[C@@H]4c4cncc(F)c4)nc23)C1 [Example 92, (R)-(5-(2-(5-fluoropyridin-3-yl)pyrrolidin-1-yl)pyrazolo[1,5-a]pyrimidin-3-yl)(3-hydroxy-3-methylazetidin-1-yl)methanone]
[1]
  IC50: 1010 nM
[2]; [3]
  IC50: > 1000 nM

## Cn1cc(CNC(=O)c2cnn3ccc(N4CCC[C@@H]4c4cc(F)ccc4F)nc23)cn1 [Example 22, (R)-5-(2-(2,5-difluorophenyl)pyrrolidin-1-yl)-N-((1-methyl-1H-pyrazol-4-yl)methyl)pyrazolo[1,5-a]pyrimidine-3-carboxamide]
[1]
  IC50: 2.1 nM
[2]; [3]
  IC50: > 1000 nM

## O=C(c1cnn2ccc(N3CCC[C@@H]3c3cncc(F)c3)nc12)N1CCCCC1 [Example 137, (R)-(5-(2-(5-fluoropyridin-3-yl)pyrrolidin-1-yl)pyrazolo[1,5-a]pyrimidin-3-yl)(piperidin-1-yl)methanone]
[1]
  IC50: 794 nM
[2]; [3]
  IC50: > 1000 nM

## CONC(=O)c1cnn2ccc(N3CCC[C@@H]3c3cncc(F)c3)nc12 [Example 73, (R)-5-(2-(5-fluoropyridin-3-yl)pyrrolidin-1-yl)-N-methoxypyrazolo[1,5-a]pyrimidine-3-carboxamide]
[1]
  IC50: 48.5 nM
[2]; [3]
  IC50: > 1000 nM

## O=C(c1cnn2ccc(N3CCC[C@@H]3c3cncc(F)c3)nc12)N1CCCC1 [Example 94, (R)-(5-(2-(5-fluoropyridin-3-yl)pyrrolidin-1-yl)pyrazolo[1,5-a]pyrimidin-3-yl)(pyrrolidin-1-yl)methanone]
[1]
  IC50: 568 nM
[2]; [3]
  IC50: > 1000 nM

## O=C(N[C@@H]1CCC[C@H]1O)c1cnn2ccc(N3CCC[C@@H]3c3cncc(F)c3)nc12 [Example 133, 5-((R)-2-(5-fluoropyridin-3-yl)pyrrolidin-1-yl)-N-((1R,2R)-2-hydroxycyclopentyl)pyrazolo[1,5-a]pyrimidine-3-carboxamide]
[1]
  IC50: 16 nM
[2]; [3]
  IC50: > 1000 nM

## CONC(=O)c1cnn2ccc(N3CCC[C@@H]3c3cc(F)ccc3F)nc12 [Example 65, (R)-5-(2-(2,5-difluorophenyl)pyrrolidin-1-yl)-N-methoxypyrazolo[1,5-a]pyrimidine-3-carboxamide]
[1]
  IC50: 0.6 nM
[2]; [3]
  IC50: > 1000 nM

## Cn1cc(F)cc([C@H]2CCCN2c2ccn3ncc(C(=O)N[C@H](CO)C(C)(C)C)c3n2)c1=O [Example 233, 5-((R)-2-(5-fluoro-1-methyl-2-oxo-1,2-dihydropyridin-3-yl)pyrrolidin-1-yl)-N-((S)-1-hydroxy-3,3-dimethylbutan-2-yl)pyrazolo[1,5-a]pyrimidine-3-carboxamide]
[1]
  IC50: 75.9 nM
[2]; [3]
  IC50: > 1000 nM

## O=C(c1cnn2ccc(N3CCC[C@@H]3c3cncc(F)c3)nc12)N1CC[C@H](O)C1 [Example 128, (5-((R)-2-(5-fluoropyridin-3-yl)pyrrolidin-1-yl)pyrazolo[1,5-a]pyrimidin-3-yl)((S)-3-hydroxypyrrolidin-1-yl)methanone]
[1]
  IC50: 2600 nM
[2]; [3]
  IC50: > 1000 nM

## O=C(NC1(CO)CC1)c1cnn2ccc(N3CCC[C@@H]3c3cc(F)ccc3F)nc12 [Example 16, (R)-5-(2-(2,5-difluorophenyl)pyrrolidin-1-yl)-N-(1-(hydroxymethyl)cyclopropyl)pyrazolo[1,5-a]pyrimidine-3-carboxamide]
[1]
  IC50: 0.9 nM
[2]; [3]
  IC50: > 1000 nM
